The record followed here is PubChem BioAssay AID330 (DTP/NCI, 2004).

Values joined by “and” are separate entries in the source; they are usually repeats but may differ in a detail not shown here. Equal values may be shown once. Inconclusive results and toxic doses are left out. Peptide text beside a SMILES is read from it.

For this assay, the system named is P388 leukemia ip, CD2F1 mice, survival T/C. Description: NCI In Vivo Anticancer Drug Screen. Data for tumor model P388 Leukemia (intraperitoneal) in CD2F1 (CDF1) mice. As to conditions: endpoint: median survival time, higher = longer survival. In a few lines:
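Mice carrying the transplanted tumor received test compound or vehicle. Survival was recorded in each group, and the value is the treated-group measurement divided by that of the vehicle-treated control group.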

[1] abbreviates: dose: 100.0 mg/kg/injection, schedule: Q04DX002 (ip), vehicle: saline.
The mark [2] stands for this setting: dose: 200.0 mg/kg/injection, schedule: Q04DX002 (ip), vehicle: saline.
The mark [3] stands for this setting: dose: 12.5 mg/kg/injection, schedule: Q01DX009 (ip), vehicle: distilled water + Tween-80.
[4] abbreviates: dose: 25.0 mg/kg/injection, schedule: Q01DX009 (ip), vehicle: distilled water + Tween-80.
The mark [5] stands for this setting: dose: 50.0 mg/kg/injection, schedule: Q01DX009 (ip), vehicle: distilled water + Tween-80.
The mark [6] stands for this setting: dose: 100.0 mg/kg/injection, schedule: Q01DX009 (ip), vehicle: distilled water + Tween-80.
Where [7] appears, read: dose: 200.0 mg/kg/injection, schedule: Q01DX009 (ip), vehicle: distilled water + Tween-80.
[8] abbreviates: dose: 60.0 mg/kg/injection, schedule: Q01DX005 (ip), vehicle: Klucel (hydroxypropylcellulose) (HPC).
Setting [9] is: dose: 120.0 mg/kg/injection, schedule: Q01DX005 (ip), vehicle: Klucel (hydroxypropylcellulose) (HPC).
Where [10] appears, read: dose: 240.0 mg/kg/injection, schedule: Q01DX005 (ip), vehicle: Klucel (hydroxypropylcellulose) (HPC).
The mark [11] stands for this setting: dose: 50.0 mg/kg/injection, schedule: Q01DX005 (ip), vehicle: saline with Tween-80.
The mark [12] stands for this setting: dose: 100.0 mg/kg/injection, schedule: Q01DX005 (ip), vehicle: saline with Tween-80.
[13] abbreviates: dose: 200.0 mg/kg/injection, schedule: Q01DX005 (ip), vehicle: saline with Tween-80.
The mark [14] stands for this setting: dose: 60.0 mg/kg/injection, schedule: Q01DX005 (ip), vehicle: saline with Tween-80.
The mark [15] stands for this setting: dose: 120.0 mg/kg/injection, schedule: Q01DX005 (ip), vehicle: saline with Tween-80.
Where [16] appears, read: dose: 240.0 mg/kg/injection, schedule: Q01DX005 (ip), vehicle: saline with Tween-80.
Setting [17] is: dose: 100.0 mg/kg/injection, schedule: Q01DX001 (ip), vehicle: saline with Tween-80.
The mark [18] stands for this setting: dose: 400.0 mg/kg/injection, schedule: Q01DX001 (ip), vehicle: saline with Tween-80.
[19] abbreviates: dose: 25.0 mg/kg/injection, schedule: Q01DX005 (ip), vehicle: saline.
The mark [20] stands for this setting: dose: 50.0 mg/kg/injection, schedule: Q01DX009 (ip), vehicle: saline with Tween-80.
Setting [21] is: dose: 100.0 mg/kg/injection, schedule: Q01DX009 (ip), vehicle: saline with Tween-80.
Where [22] appears, read: dose: 200.0 mg/kg/injection, schedule: Q01DX009 (ip), vehicle: saline with Tween-80.
Where [23] appears, read: dose: 25.0 mg/kg/injection, schedule: Q01DX005 (ip), vehicle: Klucel (hydroxypropylcellulose) (HPC).
Setting [24] is: dose: 50.0 mg/kg/injection, schedule: Q01DX005 (ip), vehicle: Klucel (hydroxypropylcellulose) (HPC).
Where [25] appears, read: dose: 100.0 mg/kg/injection, schedule: Q01DX005 (ip), vehicle: Klucel (hydroxypropylcellulose) (HPC).
[26] abbreviates: dose: 200.0 mg/kg/injection, schedule: Q01DX005 (ip), vehicle: Klucel (hydroxypropylcellulose) (HPC).

Regarding `Cc1cccc(C2(Br)C(=O)c3ccccc3C2=O)c1`, the T/C was 102 % of control under setting [1]; 103 % of control under setting [2]; 102 % of control (dose: 400.0 mg/kg/injection, schedule: Q04DX002 (ip), vehicle: saline).

For the compound `Nc1cc(=O)[nH]c(=S)[nH]1.[Pd]`, the T/C by setting is: under setting [3], 108 % of control; under setting [4], 97 % of control; under setting [5], 100 % of control; under setting [6], 95 % of control; under setting [7], 105 % of control.

Take `COc1nc(OC)c2cnn(-c3ccc(Cl)cc3)c2n1`: the T/C reads like this: (dose: 30.0 mg/kg/injection, schedule: Q01DX005 (ip), vehicle: Klucel (hydroxypropylcellulose) (HPC)) 89 % of control; under setting [8], 89 % of control; under setting [9], 92 % of control; under setting [10], 89 % of control.

Consider `CSc1cc(C)c(C#N)c(SC)n1`, for which the T/C was 92 % of control under setting [11], 89 % of control under setting [12] and 99 % of control under setting [13].

Consider `Cc1ccc(SCc2cn(C3OC(CO)C(O)C3O)c(=O)[nH]c2=O)cc1` (centres undefined), for which the T/C was 95 % of control and 102 % of control under setting [8]; 95 % of control and 101 % of control under setting [9]; 92 % of control and 95 % of control under setting [10].

As for `O=C(NC(CC1CCC2OCOC2C1)C(=O)O)c1ccccc1` (centres undefined), the T/C reads like this: under setting [14], 111 % of control; under setting [15], 102 % of control; under setting [16], 105 % of control.

For `COC(=O)C(CCCN=C(N)N)NC(=O)C(N)CCCCN` (stereo not drawn) (H-Lys-Arg-OMe; configuration not given here), the T/C under setting [14] was 100 % of control, the T/C under setting [15] was 100 % of control and the T/C under setting [16] is 100 % of control.

As to `COc1ccc(S(=O)(=O)O)cc1NS(=O)(=O)c1ccc(C)cc1`, the T/C (dose: 60.0 mg/kg/injection, schedule: Q01DX005 (ip), vehicle: saline) was 102 % of control; the T/C (dose: 120.0 mg/kg/injection, schedule: Q01DX005 (ip), vehicle: saline) is 98 % of control; the T/C (dose: 240.0 mg/kg/injection, schedule: Q01DX005 (ip), vehicle: saline) was 103 % of control.

In the case of `O=C(NC1C=Nc2ccc(Cl)cc2NC1=O)c1ccc(Cl)cc1` (centres undefined), the T/C under setting [8] was 91 % of control, the T/C under setting [9] is 91 % of control and the T/C under setting [10] is 93 % of control.

For the compound `O=C(CNC(=O)Nc1ccc(C2=NCCN2)cc1)Nc1ccc(C2=NCCN2)cc1`, the T/C (dose: 22.0 mg/kg/injection, schedule: Q01DX009 (ip), vehicle: saline with Tween-80) is 95 % of control; the T/C (dose: 33.0 mg/kg/injection, schedule: Q01DX009 (ip), vehicle: saline with Tween-80) is 113 % of control; the T/C (dose: 75.0 mg/kg/injection, schedule: Q01DX009 (ip), vehicle: saline with Tween-80) is 154 % of control.

`CCCCCCCCCCCCCCCCCC[N+]1(CC)CCSCC1`: the T/C was 97 % of control (dose: 25.0 mg/kg/injection, schedule: Q01DX001 (ip), vehicle: saline with Tween-80); 98 % of control (dose: 50.0 mg/kg/injection, schedule: Q01DX001 (ip), vehicle: saline with Tween-80); 94 % of control under setting [17]; 86 % of control under setting [18].

For `CN(C)CCN(C)c1cccc2c1C(=O)c1cscc1C2=O`, the T/C runs as follows: under setting [19], 100 % of control; (dose: 50.0 mg/kg/injection, schedule: Q01DX005 (ip), vehicle: saline) 100 % of control and 92 % of control.

On to `CN1CCC(=C2c3ccccc3C(=O)C(=O)c3sccc32)CC1`, for which the T/C was 95 % of control under setting [20], 95 % of control under setting [21] and 111 % of control under setting [22].

For the compound `CC[N+](CC)=c1cc2oc3cc(N(C)C)ccc3nc-2cc1C`, the T/C (dose: 6.25 mg/kg/injection, schedule: Q01DX005 (ip), vehicle: saline with Tween-80) was 99 % of control and 107 % of control; the T/C (dose: 6.25 mg/kg/injection, schedule: Q01DX005 (ip), vehicle: saline) was 107 % of control; the T/C (dose: 12.5 mg/kg/injection, schedule: Q01DX005 (ip), vehicle: saline with Tween-80) is 106 % of control and 110 % of control; the T/C (dose: 12.5 mg/kg/injection, schedule: Q01DX005 (ip), vehicle: saline) was 112 % of control; the T/C (dose: 25.0 mg/kg/injection, schedule: Q01DX005 (ip), vehicle: saline with Tween-80) is 109 % of control and 115 % of control; the T/C under setting [19] is 122 % of control. Also, the T/C under setting [11] is 109 % of control and 110 % of control and 112 % of control.

In the case of `c1ccc2c3c([nH]c2c1)CN1CCCCC1C3` (centres undefined), the T/C (dose: 6.25 mg/kg/injection, schedule: Q01DX005 (ip), vehicle: Klucel (hydroxypropylcellulose) (HPC)) was 92 % of control; the T/C (dose: 12.5 mg/kg/injection, schedule: Q01DX005 (ip), vehicle: Klucel (hydroxypropylcellulose) (HPC)) is 92 % of control; the T/C under setting [23] is 93 % of control; the T/C under setting [24] is 99 % of control; the T/C under setting [25] was 96 % of control; the T/C under setting [26] is 112 % of control.

For `CNC(=O)OCc1c(COC(=O)NC)c(-c2ccc(Sc3ccccc3)cc2)n(C)c1C`, the T/C is, setting by setting: under setting [3], 154 % of control; under setting [4], 152 % of control; under setting [5], 160 % of control and 162 % of control; under setting [6], 171 % of control and 184 % of control; under setting [7], 108 % of control.

For the compound `NC(=O)c1ccccc1OC(=O)NCCO`, the T/C is, setting by setting: under setting [20], 106 % of control; under setting [21], 95 % of control; under setting [22], 100 % of control.

Consider `C/C=C(\CCNCCCC)[Si](C)(C)C`, for which the T/C under setting [1] was 104 % of control and the T/C under setting [2] was 101 % of control.

In the case of `CCOC(=O)/C(C#N)=C/c1ccc(-c2cc(C(F)(F)F)cc(C(F)(F)F)c2)o1`, the T/C is 92 % of control under setting [11], 90 % of control under setting [12] and 88 % of control under setting [13].

Take `COc1ccc(C(=O)N2C3C4C=CC(C4)C3N2C(=O)c2ccc(OC)cc2)cc1` (centres undefined): the T/C is 99 % of control under setting [23]; 92 % of control and 93 % of control under setting [24]; 95 % of control under setting [25]; 88 % of control under setting [26].

On to `CCCc1c(Cl)nc(Cl)nc1Cl`, for which the T/C is, setting by setting: (dose: 25.0 mg/kg/injection, schedule: Q01DX009 (ip), vehicle: saline with Tween-80) 104 % of control; (dose: 25.0 mg/kg/injection, schedule: Q04DX003 (ip), vehicle: saline with Tween-80) 113 % of control; under setting [20], 118 % of control; (dose: 50.0 mg/kg/injection, schedule: Q04DX003 (ip), vehicle: saline with Tween-80) 121 % of control; (dose: 66.0 mg/kg/injection, schedule: Q01DX009 (ip), vehicle: saline with Tween-80) 116 % of control; under setting [21], 100 % of control. Besides, under “dose: 100.0 mg/kg/injection, schedule: Q04DX003 (ip), vehicle: saline with Tween-80”, the T/C is 113 % of control.

On to `CS/N=N/N=C(\c1ccccc1)N1CCOCC1`, for which the T/C under setting [14] was 103 % of control and the T/C under setting [15] is 97 % of control.

In the case of `COC(=O)/C(C#N)=C/Sc1ccccc1`, the T/C reads like this: under setting [17], 101 % of control; (dose: 200.0 mg/kg/injection, schedule: Q01DX001 (ip), vehicle: saline with Tween-80) 98 % of control; under setting [18], 97 % of control.
